Reference: PubChem BioAssay (NCI)
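Tested at 5 concentrations; 48 h exposure; 96-well plates; endpoints linearly interpolated, else capped at highest concentration. TGI: total growth inhibition.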

Tests used:
Assay in all cases: DTP human tumour cell line panel, 48 h
NCI-H522 lung = test system: NCI-H522 lung
SN12C renal = test system: SN12C renal
NCI/ADR-RES ovarian = test system: NCI/ADR-RES ovarian
EKVX NSCLC = test system: EKVX NSCLC
KM12 colon = test system: KM12 colon
OVCAR-8 ovarian = test system: OVCAR-8 ovarian
SW-620 colon = test system: SW-620 colon
UO-31 renal = test system: UO-31 renal
A549 NSCLC = test system: A549 NSCLC
BT-549 breast = test system: BT-549 breast
HL-60(TB) leukemia = test system: HL-60(TB) leukemia
CCRF-CEM leukemia = test system: CCRF-CEM leukemia
TK-10 renal = test system: TK-10 renal
OVCAR-4 ovarian = test system: OVCAR-4 ovarian
IGROV1 ovarian = test system: IGROV1 ovarian
DU-145 prostate = test system: DU-145 prostate
HCT-116 colon = test system: HCT-116 colon
SK-MEL-2 melanoma = test system: SK-MEL-2 melanoma
MALME-3M melanoma = test system: MALME-3M melanoma
K-562 leukemia = test system: K-562 leukemia

| SMILES | TGI (NCI-H522 lung) [µM] | TGI (SN12C renal) [µM] | TGI (NCI/ADR-RES ovarian) [µM] | TGI (EKVX NSCLC) [µM] | TGI (KM12 colon) [µM] | TGI (OVCAR-8 ovarian) [µM] | TGI (SW-620 colon) [µM] | TGI (UO-31 renal) [µM] | TGI (A549 NSCLC) [µM] | TGI (BT-549 breast) [µM] | TGI (HL-60(TB) leukemia) [µM] | TGI (CCRF-CEM leukemia) [µM] | TGI (TK-10 renal) [µM] | TGI (OVCAR-4 ovarian) [µM] | TGI (IGROV1 ovarian) [µM] | TGI (DU-145 prostate) [µM] | TGI (HCT-116 colon) [µM] | TGI (SK-MEL-2 melanoma) [µM] | TGI (MALME-3M melanoma) [µM] | TGI (K-562 leukemia) [µM] |
| --- | --- | --- | --- | --- | --- | --- | --- | --- | --- | --- | --- | --- | --- | --- | --- | --- | --- | --- | --- | --- |
| COc1cc(Nc2cnc3cc(F)c(F)cc3n2)cc(OC)c1OC | > 100 | > 100 | > 100 | > 100 | > 100 | > 100 | > 100 | > 100 | > 100 | > 100 | > 100 | > 100 | > 100 | > 100 | > 100 | > 100 | > 100 | > 100 | > 100 | – |
| C=C(C)C(CC=C(C)C)CC12CC(CC=C(C)C)C(C)(C)C(CC=C(C)C)(C(=O)C(Cc3ccc(O)c(O)c3)=C1O)C2=O (centres undefined) | > 100 | – | > 100 | > 100 | > 100 | > 100 | > 100 | > 100 | > 100 | > 100 | > 100 | > 100 | > 100 | > 100 | > 100 | > 100 | > 100 | – | > 100 | > 100 |
| CN1C(=O)N/C(=C\c2ccc(S(=O)(=O)NN)cc2)C1=O | – | > 100 | > 100 | > 100 | > 100 | > 100 | > 100 | > 100 | > 100 | > 100 | > 100 | > 100 | > 100 | > 100 | > 100 | > 100 | > 100 | > 100 | > 100 | > 100 |
| O=[N+]([O-])c1ccccc1S(=O)(=O)c1cc(Cl)cc2c1NCCC2 | – | > 100 | > 100 | > 100 | > 100 | > 100 | > 100 | > 100 | > 100 | > 100 | > 100 | > 100 | > 100 | > 100 | > 100 | > 100 | > 100 | > 100 | 74.1 | > 100 |
| CN(c1ccc(Cl)cc1)S(=O)(=O)c1cccc([N+](=O)[O-])c1 | > 100 | > 100 | > 100 | > 100 | > 100 | > 100 | > 100 | > 100 | > 100 | > 100 | – | > 100 | > 100 | > 100 | > 100 | > 100 | > 100 | > 100 | > 100 | > 100 |
| COC(=O)Cc1cc(O)c(C/C=C(\C)CC/C=C(\C)C(O)C(=O)C=C(C)C)cc1O (centres undefined) | 39.8 | 58 | 58.4 | 66.8 | 43.2 | 55.1 | 87.8 | 46 | > 100 | 72.8 | 12 | 10.3 | – | > 100 | 63 | > 100 | 31.1 | 48.6 | 48.6 | 39.1 |
| COC(=O)C(C)(NC(=O)C(CC(=O)OC(C)(C)C)NC(=O)OC(C)(C)C)c1ccccc1 (centres undefined) | > 100 | > 100 | > 100 | > 100 | > 100 | > 100 | > 100 | > 100 | > 100 | > 100 | > 100 | > 100 | > 100 | – | > 100 | > 100 | > 100 | – | > 100 | > 100 |
| CC(C)C1OC23CCCCC2C(C#N)(C#N)C1(C#N)C(=N)O3 (centres undefined) | – | 31.4 | > 100 | 77.7 | – | 49.8 | 99.3 | > 100 | > 100 | 39.8 | 30.8 | > 100 | 48.4 | – | – | 94.8 | 39.8 | 76 | 39.6 | > 100 |
| CC1(CCCO)CCCCCC(C)(CCCO)C1=O (centres undefined) | > 100 | > 100 | > 100 | > 100 | > 100 | > 100 | > 100 | > 100 | > 100 | > 100 | > 100 | > 100 | – | > 100 | > 100 | > 100 | > 100 | > 100 | > 100 | > 100 |
| S=C(c1c[nH]c2ccccc12)N1CCOCC1 | – | > 100 | > 100 | > 100 | > 100 | > 100 | > 100 | > 100 | – | > 100 | > 100 | > 100 | > 100 | – | > 100 | > 100 | > 100 | > 100 | > 100 | > 100 |
| O=c1[nH]c(-c2ccc3ccccc3c2)nc2ccccc12 | > 100 | > 100 | > 100 | > 100 | > 100 | 54.4 | > 100 | 60.9 | > 100 | > 100 | > 100 | – | 13.4 | 9.73 | > 100 | > 100 | > 100 | > 100 | > 100 | > 100 |
| COc1ccc2nc3ccc(OC)cc3c(S(=O)CCCl)c2c1 (centres undefined) | 3.23 | 3.72 | 36.8 | 25.6 | 37.3 | 9.2 | – | – | 48 | 30.3 | 6.86 | > 23.8 | 8.26 | 16.4 | 6.87 | 4.66 | 3.39 | 35.3 | 3.57 | > 23.6 |
| CNc1ccc(OC)cc1S(=O)(=O)c1ccccc1[N+](=O)[O-] | > 100 | > 100 | > 100 | > 100 | – | > 100 | > 100 | > 100 | > 100 | > 100 | > 100 | > 100 | > 100 | > 100 | > 100 | > 100 | > 100 | > 100 | > 100 | > 100 |
